Source: EP0389975A1, “Intranasal administration of physostigmine and arecoline” (priority 1989, dated 1990)
Where two headings read alike, the source gives them in different places.

How the values were obtained:
[1] = tested on: patients having Alzheimer presenile dementia; conditions: cited from earlier work
[2] = Pharmacokinetics of physostigmine in rats after intravenous and intranasal administration
Method: Male Lewis rats, each weighing approximately 300 grams were anesthesized with pentobarbital (50 mg/kg i.p.). The jugular vein was cannulated and attached to a syringe through a three way stopcock for blood collections. For nasal administration of physostigmine and arecoline, an incision was made in the neck of the animals and the trachea was cannulated with a polyethylene (PE) tube. A closed tube was inserted through the esophagus to the posterior part of the nasal cavity. The nasopalatine passage was closed with an adhesive agent to prevent drainage of the drug from the nasal cavity to the mouth. An aqueous solution of physostigmine hemi-sulfate (obtained from Sigma Chemical, St. Louis, Mo.) dose equivalent to 200 µg/kg of physostigmine base in a volume of 150 µl/kg was administered to the nasal cavity by means of a Hamilton syringe with PE tubing attached to the end. For arecoline hydrobromide (obtained from Sigma Chemical, St. Louis, MO.), an aqueous solution with a dose of 2 mg/kg was administered in a volume of 150 µl/kg. Blood samples (1 ml) were withdrawn through the jugular cannula and replaced with equal volume of fresh blood after each sampling as a function of time. For intravenous administration of physostigmine the same dose as nasal (200 µg/kg) in a volume of 1 ml/kg was injected through the femoral vein. For intramuscular arecoline hydrobromide, the dose was 1 mg/kg in a volume of 1 ml/kg injected into the biceps femoris. The blood samples were collected into heparinized test tubes. In the case of physostigmine the tubes also contained 50 µl of a 100 µg/ml neostigmine bromide (as a stabilizer for physostigmine). Plasma was separated immediately and stored frozen.
The analytical method for physostigmine in plasma was a modification of that described in Brodie, et al., J. Chromatogr. 415, 423-431 (1987). Plasma samples (0.5 ml) were pipetted into extraction tubes, and 0.2 ml of an aqueous solution of 3,3-bis(4- pyridylmethyl)-1-phenyl indolin-2-one as an internal standard (1.5 µg/ml), 2 ml of ethylacetate and 0.2 ml of a 3.5% sodium carbonate solution were added. The tubes were shaken mechanically for 0.5 minute and centrifuged for 5 minutes. The organic layer was then transferred to 12 X 75 mm tubes, evaporated to dryness under a steam of nitrogen, and the residue was reconstituted in 0.2 ml acetonitrile. After mechanical shaking (2 minutes), aliquots (125 µl) were analyzed by High Performance Liquid Chromatography (HPLC) using a dual detection system, where detection of physostigmine was by a fluorimetric detector and detection of the internal standard was by an ultraviolet (u.v.) detector.
Separation was achieved on a 25 cm x 4.6 mm reverse phase (Zorbax® C₈, Du Pont) column attached to a guard column with C₈ packing at ambient temperature The mobile phase contained 0.2 M ammonium acetate-acetonitrile (2:3), adjusted to pH 8.2-8.3 with triethylamine and was delivered at a flow rate of 1.5 ml/min. Detection of physostigmine was by fluorimetric detector (Spectroflow 980 Programmable Fluorescence Detector, Kratos) operated at excitation and emission wavelengths of 254 and 320 nm, respectively. Detection of the internal standard was by u.v. detector (Lambda-Max Model 481 LC Spectrophotometer, Waters instrument) set at 254 nm. […] The other components of the HPLC system were a Waters 590 Programmable HPLC pump, an autosampler (Waters WISP 710B) and a recording integrator (Hewlett-Packard Model 3393A).

rats = experiment: Survival of rats after arecoline administration by different routes; format: in vivo
Method: (§1) The blood samples were collected into heparinized test tubes. […] Plasma was separated immediately and stored frozen.
Plasma arecoline concentrations were determined after nasal and i.m. administration of the compound. After intranasal administration, arecoline was absorbed very rapidly (tmax= 3 +/- 1.6 min), faster than after i.m. administration (tmax=13.3 +/- 6.2 min). […] It is not known why absorption after i.m. was slower. […] Bolus i.v. studies were also performed, but the rats died. […]

[3] = cited from earlier work
[4] = In situ-in vivo nasal study: dosing in one nostril and washing out from the other; parameters: species or system rats; conditions: after 15 minutes of dosing in one nostril
[5] = Pharmacokinetics of arecoline in rats after intranasal and intramuscular administration; format: in vivo, Male Lewis rats; conditions: for Tmax / half-life / AUC / Cmax: male, Lewis, rat, plasma; for AUC / Cmax: n=3 rats
Method: as §1
The analytical method of arecoline in plasma was performed by gas-chromatography-mass spectrometry (GC-MS) after solvent extraction using a method similar to that described in Beil, et al., Drug Develop Res, 9, 203-212 (1986). Nicotine was used as an internal standard. In this method, 50µl of nicotine solution in chloroform (1.5 µg/ml and 50 µl of 10% triethylamine in chloroform were added to 0.5 ml cold plasma in a 5 ml test tube with a screw cap. The tubes were vortexed for 1 minute and centrifuged for 10-15 minutes. The organic layer was then removed, placed in a micro vial and sealed with perfluoroethylene tape such as Teflon®, until analysis.
GC-MS analysis was performed using an HP-1 column, (crosslinked methyl silicon, 12 m x […] x 0.33 µm film thickness). Two µl aliquots were injected onto the column in a splitless mode. Helium was used as a carrier gas. Detection was accomplished using a gas chromatograph electron impact mass selective detector set at m/z=155 and 162. The limit of arecoline detection was 15 ng/ml.

normal human subjects = conditions: cited from earlier work
[6] = male, Lewis, rat, plasma, inhaled or intranasal, 200 ug/kg
[7] = im, 1 mg/kg, after i.m. administration
[8] = im, Intramuscular, 1 mg/kg Arecoline HBr
[9] = inhaled or intranasal, 2 mg/kg, after intranasal administration
[10] = inhaled or intranasal, Intranasal, 2 mg/kg Arecoline HBr

For `CNC(=O)Oc1ccc2c(c1)[C@]1(C)CCN(C)[C@@H]1N2C` [physostigmine], the picture recognition tests ([1]; 0.25 mg and 0.75 mg doses) is listed as “trend toward improvement”, the picture recognition tests ([1]; intravenous administration of 0.375 mg) is listed as “improvement” and the Tmax ([2]; Nasal, 200 µg/kg, n = 7 rats (Table 1)) is listed as 6.5 ± 1.7 min. It also gave an AUC [2, 6] of 38.9 ng·h/mL, a Cmax [2, 6] of 86 ± 5 ng/mL and a Tmax [2, 6] of 6.5 min. It also gave a half-life [2, 6] of 36 ± 16 min, an AUC ([2]; male, Lewis, rat, plasma, iv, 200 ug/kg) of 40.2 ng·h/mL and a bioavailability ([2]; male, Lewis, rat, plasma, iv, 200 µg/kg) of 97%.
For `COC(=O)C1=CCCN(C)C1` [arecoline], the death of rats (rats; bolus i.v.) was “the rats died”, the death of rats (rats; i.m. administration) was “None of the rats died” and the death of rats (rats; intranasal administration) was “None of the rats died”. The “bioavailability upon oral administration” value [3] was “not bioavailable”, the “residual arecoline in the nose” value [4] was “no residual arecoline” and the picture recognition tests ([1]; 2 mg doses) was “trend toward improvement”. For the same compound, the picture recognition tests ([1]; intravenous administration of 4 mg) was “improvement”, the Tmax ([5]; im, 1 mg/kg, Intramuscular, 1 mg/kg Arecoline HBr, n=3 rats (Table 2)) was 5.43 min and the Tmax [5, 7] was 13.3 min. For the same compound, the half-life [5, 7] was 5.4 ± 1.1 min, the AUC [5, 8] was 77.7 ng·h/mL and the Cmax [5, 8] was 249 ± 22 ng/mL. It also gave a Tmax ([5]; inhaled or intranasal, 2 mg/kg, Intranasal, 2 mg/kg Arecoline HBr, n=3 rats (Table 2)) of 3 min, a Tmax [5, 9] of 3 min and a half-life [5, 9] of 2 ± 0.6 min. The AUC [5, 10] was 141 ng·h/mL, the Cmax [5, 10] was 1750 ± 523 ng/mL and the Bioavilability ([5]; ratio of AUC (nasal/intramuscular) X 100) was 85%. For the same compound, the serial learning (normal human subjects) was “significantly enhanced”.
